This note sets out measurements from patent US20220220106A1, “QUINOLINE COMPOUNDS AND PHARMACEUTICAL COMPOSITIONS AND USES THEREOF” (Academy of Military Medical Sciences, priority 2019, published 2022).

pIC50: −log10 of the molar value.

One series deals with RD cells. Briefly: Detection of cytotoxicity in RD cells (CellTiter-Glo). It is filed as cell-based. The conditions noted are these: for TD50: 4 days, CellTiter-Glo, median toxic dose. In a few lines: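 RD cells (1*10^5/mL) cultured 4 days at 37 °C with 10 compound concentrations from 3-fold dilution of a 400 μM pretreatment solution, final being 0.5 times that. Viability by CellTiter-Glo luminescence versus cell control; TD50 from S-curve fit; SI=TD50/IC50.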

A further series concerns the target T1, mTOR kinase (Homo sapiens, UniProt P42345).
T1 construct: purchased Thermo Fisher PV4753
Briefly: In vitro inhibitory activity on mTOR kinase (TR-FRET, GFP-4E-BP1 substrate). The series is classed as biochemical. The conditions noted are these: for pIC50: 0.5 μg/mL mTOR, 0.4 μM GFP-4E-BP1, 3 μM ATP. How it is done:
Preparation of Reaction Buffers:
Basic buffer composition: 50 mM (mmol/L) HEPES (pH 7.5), 1 mM EGTA, 0.01% Tween-20, 10 mM MnCl2, 2 mM DTT (diluted from 500 mM before used).
(2) mTOR kinase buffer solution: 1650 μL of 2.5×mTOR kinase buffer solution was composed of 1640.2 μL of 1× basic buffer and 9.8 μL of mTOR (0.21 mg/mL stock solution), and the final concentration was 0.5 μg/mL.
(3) Detection buffer solution: 3960 μL of 2× detection buffer solution was composed of 3797.1 μL of TR-FRET buffer diluent (purchased from Thermo Fisher, catalog number: PV3574), 4.5 μL of Tb-anti-p4E-BP1 antibody (3.49 μM stock solution, purchased from Thermo Fisher, catalog number: PV4757) and 158 μL of EDTA (500 mM stock solution), and the final concentrations were 2 nM Tb-anti-p4E-BP1 antibody and 10 mM EDTA.
(1) 20 μL of 100% DMSO solution containing 5 mM compound to be tested was added to a 96-well plate.
(2) The compound was serially diluted 3 times in DMSO.
(3) 1 μL of the compound in the previous step was taken, diluted with 19 μL of mTOR kinase buffer, and transferred to another 96-well plate.
(4) 4 μL of mTOR kinase solution (purchased from Thermo Fisher, catalog number: PV4753) was added to a 384-well plate.
(5) 2 μL of the compound in G was taken out and added to the 384-well plate with mTOR kinase, and incubated at room temperature for 15 minutes.
(6) 4 μL of substrate solution was added to initiate the reaction.
The final concentrations of mTOR reaction solution were: 0.5 μg/mL mTOR, 0.4 μM GFP-4E-BP1, 3 μM ATP.
The final concentration of the DMSO solution was 1%.
(7) Incubation was performed for 60 minutes at room temperature.
(8) 10 μL of detection buffer was added. The final concentrations were 2 nM Tb-anti-p4E-BP1 antibody and 10 mM EDTA.
(9) Incubation was performed for 30 minutes at room temperature.
(10) TR-FRET value was read on MD5 multi-mode plate reader (Molecular Devices). The excitation wavelength was 340 nm, the emission wavelength 1 was 495 nm, and the emission wavelength 2 was 520 nm. The ratio of 520 nm/495 nm readings was calculated as TR-FRET value.
IC50 of compound was fitted by nonlinear regression equation:
Y=Bottom+(Top-Bottom)/(1+10^((LogIC50-X)*HillSlope));
X: common logarithm value of compound concentration; Y: TR-FRET value (520 nm/495 nm).

T1 sequence (P42345 1360-2549 limits assumed): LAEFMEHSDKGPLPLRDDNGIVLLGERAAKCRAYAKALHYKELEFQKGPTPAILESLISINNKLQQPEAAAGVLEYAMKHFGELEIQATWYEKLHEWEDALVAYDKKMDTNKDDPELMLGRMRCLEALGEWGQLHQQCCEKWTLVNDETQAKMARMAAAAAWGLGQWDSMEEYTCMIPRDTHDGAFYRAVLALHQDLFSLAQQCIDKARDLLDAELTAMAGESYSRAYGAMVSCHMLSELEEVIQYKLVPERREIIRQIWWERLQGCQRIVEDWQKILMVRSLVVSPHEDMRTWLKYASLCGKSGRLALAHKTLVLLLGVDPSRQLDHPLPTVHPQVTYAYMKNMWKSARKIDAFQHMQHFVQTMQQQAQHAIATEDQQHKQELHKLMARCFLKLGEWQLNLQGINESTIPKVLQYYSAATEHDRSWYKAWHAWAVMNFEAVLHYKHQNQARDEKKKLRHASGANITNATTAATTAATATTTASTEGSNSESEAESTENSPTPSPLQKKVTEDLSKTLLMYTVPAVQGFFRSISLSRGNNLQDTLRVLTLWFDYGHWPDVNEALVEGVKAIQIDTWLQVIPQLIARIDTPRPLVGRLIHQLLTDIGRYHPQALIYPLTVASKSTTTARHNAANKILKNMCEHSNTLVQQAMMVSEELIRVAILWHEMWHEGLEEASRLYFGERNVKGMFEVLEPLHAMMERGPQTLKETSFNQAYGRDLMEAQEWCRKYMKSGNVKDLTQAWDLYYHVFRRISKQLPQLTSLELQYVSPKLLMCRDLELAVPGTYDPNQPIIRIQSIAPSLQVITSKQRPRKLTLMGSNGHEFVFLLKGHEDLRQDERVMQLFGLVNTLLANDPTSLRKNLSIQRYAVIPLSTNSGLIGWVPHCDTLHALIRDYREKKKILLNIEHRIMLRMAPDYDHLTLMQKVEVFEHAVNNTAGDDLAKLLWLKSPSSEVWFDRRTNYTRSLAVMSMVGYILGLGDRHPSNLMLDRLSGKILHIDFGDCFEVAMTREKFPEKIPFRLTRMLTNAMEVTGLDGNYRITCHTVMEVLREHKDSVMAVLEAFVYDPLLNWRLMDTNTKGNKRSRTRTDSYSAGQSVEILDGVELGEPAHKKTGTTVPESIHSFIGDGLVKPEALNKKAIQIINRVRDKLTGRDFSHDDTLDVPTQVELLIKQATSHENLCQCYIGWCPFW

As to `O=c1ccc2cnc3ccc(-c4ccc(N5CCCC5)nc4)cc3c2n1-c1cccc(C(F)(F)F)c1` [HTL-7-20, 9-[3-(6-pyrrolidinyl)pyridyl]-2-oxo-1-[3-(trifluoromethyl)phenyl]-1,2-dihydrobenzo[h][1,6]naphthyridine], the TD50 with RD cells was determined as 1.79 ± 0.67 µM. For the same molecule, the pIC50 on mTOR kinase is 7.95.
Turning to `O=c1ccc2cnc3ccc(-c4cccnc4F)cc3c2n1-c1cccc(C(F)(F)F)c1` [HTL-6-48, 9-[3-(2-fluoro)pyridyl]-2-oxo-1-[3-(trifluoromethyl)phenyl]-1,2-dihydrobenzo [h][1,6]naphthyridine], in the series on RD cells, the “toxicity, in words” value was “relatively low toxicity” and the TD50 turned out to be 1.23 ± 1.20 µM. At mTOR kinase, this molecule showed a pIC50 of 7.50.
On to `O=C1Cc2cc(-c3ccc4ncc5ccc(=O)n(-c6cccc(C(F)(F)F)c6)c5c4c3)ccc2N1` [HTL-7-04, 9-[5-(2-oxo)indolyl]-2-oxo-1-[3-(trifluoromethyl)phenyl]-1,2-dihydrobenzo[h][1,6]naphthyridine], for which the TD50 in the series on RD cells worked out at 10.27 ± 7.81 µM. For the same molecule, on mTOR kinase, the “inhibitory activity on mTOR kinase, in words” value (“inhibitory activity” for short) is on record as “moderate inhibitory activity” and the pIC50 was 6.62.
In the series with RD cells, `O=c1ccc2cnc3ccc(-c4ccc(F)nc4)cc3c2n1-c1cccc(C(F)(F)F)c1` [HTL-7-01, 9-[3-(6-fluoro)pyridyl]-2-oxo-1-[3-(trifluoromethyl)phenyl]-1,2-dihydrobenzo[h][1,6]naphthyridine] returned a TD50 of 0.23 ± 0.33 µM. Moreover, on mTOR kinase, the pIC50 is 7.54.
As to `CCC(=O)Nc1ccc(-c2ccc3ncc4ccc(=O)n(-c5cccc(C(F)(F)F)c5)c4c3c2)cn1` [HTL-6-45, 9-[3-(6-propionylamino)pyridyl]-2-oxo-1-[3-(trifluoromethyl)phenyl]-1,2-dihydrobenzo[h][1,6]naphthyridine], the TD50 in the series with RD cells is 0.04 ± 0.02 µM. This molecule also showed a pIC50 against mTOR kinase of 7.53.
In the case of `O=C(Nc1ccc(-c2ccc3ncc4ccc(=O)n(-c5cccc(C(F)(F)F)c5)c4c3c2)cn1)OCc1ccccc1` [HTL-7-14, 9-[3-(6-benzyloxyamido)pyridyl]-2-oxo-1-[3-(trifluoromethyl)phenyl]-1,2-dihydrobenzo[h][1,6]naphthyridine], the TD50 in the series with RD cells worked out at 1.00 ± 0.81 µM. On mTOR kinase, the “inhibitory activity” value is “moderate inhibitory activity” and the pIC50 is 6.51.
Turning to `O=C(Cc1ccccc1)Nc1ccc(-c2ccc3ncc4ccc(=O)n(-c5cccc(C(F)(F)F)c5)c4c3c2)cn1` [HTL-7-10, 9-[3-(6-phenylacetylamino)pyridyl]-2-oxo-1-[3-(trifluoromethyl)phenyl]-1,2-dihydrobenzo[h][1,6]naphthyridine], the TD50 in the series on RD cells was determined as 0.74 ± 0.72 µM. This molecule gave a pIC50 against mTOR kinase of 7.46.
On the same counts, the results for `O=c1ccc2cnc3ccc(C4=CCC5(CC4)OCCO5)cc3c2n1-c1cccc(C(F)(F)F)c1` [HTL-7-13, 9-(1,4-dioxa-spiro[4.5]dec-7-en-8-yl)-2-oxo-1-[3-(trifluoromethyl)phenyl]-1,2-dihydrobenzo[h][1,6]naphthyridine] are 200 ± 0 µM and 7.06.
As for `COc1ccc(-c2ccc3ncc4ccc(=O)n(-c5cccc(C(F)(F)F)c5)c4c3c2)cn1` [HTL-7-03, 9-[3-(6-methoxy)pyridyl]-2-oxo-1-[3-(trifluoromethyl)phenyl]-1,2-dihydrobenzo[h][1,6]naphthyridine], the TD50 in the series on RD cells is 0.13 ± 0.03 µM. Also, on mTOR kinase, the “inhibitory activity” value was “excellent inhibitory activity” and the pIC50 was 8.14.
Molecule `COc1ccc(CC(=O)Nc2ccc(-c3ccc4ncc5ccc(=O)n(-c6cccc(C(F)(F)F)c6)c5c4c3)cn2)cc1` [HTL-7-11, 9-{3-[6-(4-methoxy)phenylacetylamino]pyridyl}-2-oxo-1-[3-(trifluoromethyl)phenyl]-1,2-dihydrobenzo[h][1,6]naphthyridine] came in with a TD50 with RD cells of 0.19 ± 0.10 µM. Moreover, at mTOR kinase, the pIC50 is 7.49.
In the series with RD cells, `CCCC(=O)Nc1ccc(-c2ccc3ncc4ccc(=O)n(-c5cccc(C(F)(F)F)c5)c4c3c2)cn1` [HTL-7-05, 9-[3-(6-butyrylamino)pyridyl]-2-oxo-1-[3-(trifluoromethyl)phenyl]-1,2-dihydrobenzo[h][1,6]naphthyridine] displayed a TD50 of 0.75 ± 0.36 µM. The same molecule had a pIC50 against mTOR kinase of 7.41.
Consider `COc1cc(-c2ccc3ncc4ccc(=O)n(-c5cccc(C(F)(F)F)c5)c4c3c2)cnc1N` [HTL-7-19, 9-[3-(6-amino-5-methoxy)pyridyl]-2-oxo-1-[3-(trifluoromethyl)phenyl]-1,2-dihydrobenzo[h][1,6]naphthyridine], for which, in the series with RD cells, the TD50 is 0.06 ± 0.02 µM. Also, at mTOR kinase, the “inhibitory activity” value is recorded as “excellent inhibitory activity” and the pIC50 was 8.12.
On the same counts, the results for `CN1CCN(c2ccc(-c3ccc4ncc5ccc(=O)n(-c6cccc(C(F)(F)F)c6)c5c4c3)cn2)CC1` [HTL-7-17, 9-{3-[6-(4-methylpiperazin-1-yl)pyridyl]}-2-oxo-1-[3-(trifluoromethyl)phenyl]-1,2-dihydrobenzo[h][1,6]naphthyridine] are 0.18 ± 0.15 µM, “excellent inhibitory activity” and 8.94.
`O=c1ccc2cnc3ccc(-c4ccc(N5CCOCC5)nc4)cc3c2n1-c1cccc(C(F)(F)F)c1` [HTL-7-18, 9-[3-(6-morpholin-4-yl)pyridyl]-2-oxo-1-[3-(trifluoromethyl)phenyl]-1,2-dihydrobenzo[h][1,6]naphthyridine] yielded a TD50 with RD cells of 2.91 ± 1.16 µM. For the same molecule, at mTOR kinase, the pIC50 was 7.64.
On the same counts, the results for `Cc1ncccc1-c1ccc2ncc3ccc(=O)n(-c4cccc(C(F)(F)F)c4)c3c2c1` [HTL-6-49, 9-[3-(2-methyl)pyridyl]-2-oxo-1-[3-(trifluoromethyl)phenyl]-1,2-dihydrobenzo[h][1,6]naphthyridine] are 0.07 ± 0.00 µM and 7.92.
With `O=c1ccc2cnc3ccc(-c4cc[nH]n4)cc3c2n1-c1cccc(C(F)(F)F)c1` [HTL-6-50, 9-[(1H)-3-pyrazolyl]-2-oxo-1-[3-(trifluoromethyl)phenyl]-1,2-dihydrobenzo[h][1,6]naphthyridine], the TD50 with RD cells stood at 0.17 ± 0.05 µM. Besides, at mTOR kinase, the “inhibitory activity” value is reported as “moderate inhibitory activity” and the pIC50 was 6.80.
`Nc1cccc(Nc2ccc3ncc4ccc(=O)n(-c5cccc(C(F)(F)F)c5)c4c3c2)n1` [HTL-6-12, 9-[2-(6-aminopyridyl)]imino-2-oxo-1-[3-(trifluoromethyl)phenyl]-1,2-dihydrobenzo[h][1,6]naphthyridine]: the TD50 in the series with RD cells amounted to 5.19 ± 0.56 µM. On mTOR kinase, this molecule gave a pIC50 of 7.17.
Take `CN(C)c1ccc(-c2ccc3ncc4ccc(=O)n(-c5cccc(C(F)(F)F)c5)c4c3c2)cn1` [HTL-7-16, 9-[3-(6-N,N-dimethyl)pyridyl]-2-oxo-1-[3-(trifluoromethyl)phenyl]-1,2-dihydrobenzo[h][1,6]naphthyridine]: the TD50 in the series with RD cells came to 0.17 ± 0.06 µM. Further, on mTOR kinase, the “inhibitory activity” value is “excellent inhibitory activity” and the pIC50 was 8.05.
The molecule `NC(=O)c1ccc(-c2ccc3ncc4oc(=O)n(-c5cccc(C(F)(F)F)c5)c4c3c2)cc1` [HTL-5-21, 8-(4-carbamoyl)phenyl-1-[3-(trifluoromethyl)phenyl]oxazolo[5,4-c]quinolin-2(1H)-one] came in with a TD50 with RD cells of 6.95 ± 1.23 µM. Besides, on mTOR kinase, the “inhibitory activity” value is “better inhibitory activity” and the pIC50 is 7.82.
In turn, `O=C(Nc1ccc(-c2ccc3ncc4ccc(=O)n(-c5cccc(C(F)(F)F)c5)c4c3c2)cn1)Oc1ccccc1` [HTL-7-15, 9-[3-(6-phenoxyamido)pyridyl]-2-oxo-1-[3-(trifluoromethyl)phenyl]-1,2-dihydrobenzo[h][1,6]naphthyridine] showed a TD50 in the series on RD cells of 0.20 ± 0.09 µM. On mTOR kinase, this molecule had a pIC50 of 7.60.
